In PMC8119466, “A screen of FDA-approved drugs identifies inhibitors of protein tyrosine phosphatase 4A3 (PTP4A3 or PRL-3)” (Scientific Reports, 2021):

Key:
[1] = system: phospho-ERK; assay: Western blot of phospho-ERK in HCT116 cells; format: cell-based, human; settings: HCT116, 24 hr; 100 µM Salirasib, 25 µM Candesartan
Procedure: Cells were lysed using Qproteome lysis buffer (Qiagen, Cat # 37901), then spun at 14,000 rpm for 10 min at 4 °C. Protein concentration in the supernatant was quantified using BCA assay (Thermo Scientific, Cat # 23227). 30 μg of protein was loaded into each lane of a TGX-stain-free pre-cast 4–20% SDS gel (Biorad, Cat # 4568094), total protein was quantified upon stain-free gel imaging, and protein was transferred onto PVDF membrane using the Trans-Blot Turbo Transfer System (BioRad, Cat # 1704150). Membranes were blocked with 5% milk in 1% TBST for 1 h, and a 1:1000 dilution of Anti-PRL-3 antibody (R&D Biosystems, Cat # MAB3219), 1:5000 phospho-ERK (Cell Signaling, Cat # 19101) or 1:5000 total ERK (Cell Signaling, Cat # 137F5) was added overnight. Following three washes in TBST, secondary HRP-conjugated antibody (GE, Cat # NA9340V) were added at a 1:5000 dilution for 1 h and membranes imaged using Clarity Western ECL Substrate. (BioRad, Cat # 1705061).

[2] = molecular target: T1, PP1alpha (Homo sapiens, UniProt P62136); assay: PhosphataseProfiler (Eurofins) selectivity panel; format: biochemical; settings: 25µM
T1 construct: purchased Eurofins PP260
T1 sequence (P62136 whole entry): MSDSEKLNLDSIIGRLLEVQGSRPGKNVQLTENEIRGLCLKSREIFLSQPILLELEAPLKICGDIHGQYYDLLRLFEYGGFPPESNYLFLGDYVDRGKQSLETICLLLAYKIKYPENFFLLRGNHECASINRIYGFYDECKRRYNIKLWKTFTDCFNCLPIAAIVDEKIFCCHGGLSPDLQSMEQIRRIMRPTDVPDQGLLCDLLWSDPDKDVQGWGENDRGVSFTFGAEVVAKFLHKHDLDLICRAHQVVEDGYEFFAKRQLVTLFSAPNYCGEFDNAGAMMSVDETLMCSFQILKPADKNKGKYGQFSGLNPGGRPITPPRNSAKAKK

[3] = molecular target: T2, TCPTP (Homo sapiens, UniProt P17706); assay: PhosphataseProfiler (Eurofins) selectivity panel; format: biochemical; settings: 25µM
T2 construct: purchased Eurofins PP260
T2 sequence (P17706 whole entry): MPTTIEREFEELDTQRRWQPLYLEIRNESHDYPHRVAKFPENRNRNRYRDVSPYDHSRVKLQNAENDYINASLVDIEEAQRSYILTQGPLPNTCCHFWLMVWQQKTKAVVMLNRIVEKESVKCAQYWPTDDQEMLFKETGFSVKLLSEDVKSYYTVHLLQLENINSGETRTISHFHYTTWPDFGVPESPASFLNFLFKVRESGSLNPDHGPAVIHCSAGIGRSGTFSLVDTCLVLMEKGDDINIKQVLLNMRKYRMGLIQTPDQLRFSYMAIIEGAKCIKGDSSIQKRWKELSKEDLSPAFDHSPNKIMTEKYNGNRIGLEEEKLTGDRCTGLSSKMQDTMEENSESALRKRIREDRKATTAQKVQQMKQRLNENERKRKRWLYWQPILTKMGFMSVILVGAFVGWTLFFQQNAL

[4] = molecular target: T3, Lambda PP (Escherichia phage lambda, UniProt P03772); assay: PhosphataseProfiler (Eurofins) selectivity panel; format: biochemical; settings: 25µM
T3 construct: purchased Eurofins PP260
T3 sequence (P03772 whole entry): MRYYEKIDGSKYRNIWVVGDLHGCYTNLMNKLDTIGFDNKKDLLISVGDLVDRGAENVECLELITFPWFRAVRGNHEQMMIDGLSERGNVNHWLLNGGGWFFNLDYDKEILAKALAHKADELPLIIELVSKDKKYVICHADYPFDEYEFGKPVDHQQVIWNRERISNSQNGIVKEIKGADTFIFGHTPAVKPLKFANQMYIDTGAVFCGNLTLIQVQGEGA
Procedure: (§1) In 384 well plates, 2.5 μM recombinant PRL-1, PRL-2, or PRL-3 was combined with DiFUMP (Life Technologies, Cat # E12020) at the KM of each protein in reaction buffer (20 mM Tris–Cl, pH 7.5, 150 mM NaCl, 10 mM DTT) as previously reported. Briefly, protein was diluted in reaction buffer and allowed to incubate at 4 °C for 20 min to allow for full reduction of the active site. DiFMUP, drug, and protein were added, and plates were incubated for 20 min at room temperature. Fluorescence intensities were measured on a Cytation 5 plate reader (Biotek) at an EX:360 nm and EM:460 nm. Data were normalized to vehicle control and IC50 values were calculated on GraphPad Prism version 8. Inhibition selectivity for PRLs over a panel of other phosphatases was determined using PhosphataseProfiler (Eurofins, Cat # PP260).

[5] = molecular target: T4, PTPMEG2 (Homo sapiens, UniProt P43378); assay: PhosphataseProfiler (Eurofins) selectivity panel; format: biochemical; settings: PTPMEG2, 25µM
T4 construct: purchased Eurofins PP260
T4 sequence (P43378 whole entry): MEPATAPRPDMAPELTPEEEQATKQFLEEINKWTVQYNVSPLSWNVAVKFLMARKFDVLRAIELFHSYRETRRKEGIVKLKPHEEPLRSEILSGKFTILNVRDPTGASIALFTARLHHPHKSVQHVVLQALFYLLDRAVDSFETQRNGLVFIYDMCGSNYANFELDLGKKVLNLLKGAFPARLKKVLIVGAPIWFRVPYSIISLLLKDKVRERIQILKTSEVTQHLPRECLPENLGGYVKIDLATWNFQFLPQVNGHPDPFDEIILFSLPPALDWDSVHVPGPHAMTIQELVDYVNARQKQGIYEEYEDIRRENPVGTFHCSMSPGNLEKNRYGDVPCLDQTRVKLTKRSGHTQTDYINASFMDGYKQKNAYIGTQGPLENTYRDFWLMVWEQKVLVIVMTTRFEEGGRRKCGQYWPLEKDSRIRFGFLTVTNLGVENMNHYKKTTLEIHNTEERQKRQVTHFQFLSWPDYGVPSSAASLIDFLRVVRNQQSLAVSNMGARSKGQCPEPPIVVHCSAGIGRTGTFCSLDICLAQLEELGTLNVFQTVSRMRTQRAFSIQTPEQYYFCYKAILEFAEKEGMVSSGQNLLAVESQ
Procedure: as §1

[6] = system: PP2A; assay: PhosphataseProfiler (Eurofins) selectivity panel; format: biochemical; settings: 25µM
Procedure: as §1

[7] = molecular target: T5, PTPMEG (Homo sapiens, UniProt P29074); assay: PhosphataseProfiler (Eurofins) selectivity panel; format: biochemical; settings: 25µM
T5 construct: purchased Eurofins PP260
T5 sequence (P29074 whole entry): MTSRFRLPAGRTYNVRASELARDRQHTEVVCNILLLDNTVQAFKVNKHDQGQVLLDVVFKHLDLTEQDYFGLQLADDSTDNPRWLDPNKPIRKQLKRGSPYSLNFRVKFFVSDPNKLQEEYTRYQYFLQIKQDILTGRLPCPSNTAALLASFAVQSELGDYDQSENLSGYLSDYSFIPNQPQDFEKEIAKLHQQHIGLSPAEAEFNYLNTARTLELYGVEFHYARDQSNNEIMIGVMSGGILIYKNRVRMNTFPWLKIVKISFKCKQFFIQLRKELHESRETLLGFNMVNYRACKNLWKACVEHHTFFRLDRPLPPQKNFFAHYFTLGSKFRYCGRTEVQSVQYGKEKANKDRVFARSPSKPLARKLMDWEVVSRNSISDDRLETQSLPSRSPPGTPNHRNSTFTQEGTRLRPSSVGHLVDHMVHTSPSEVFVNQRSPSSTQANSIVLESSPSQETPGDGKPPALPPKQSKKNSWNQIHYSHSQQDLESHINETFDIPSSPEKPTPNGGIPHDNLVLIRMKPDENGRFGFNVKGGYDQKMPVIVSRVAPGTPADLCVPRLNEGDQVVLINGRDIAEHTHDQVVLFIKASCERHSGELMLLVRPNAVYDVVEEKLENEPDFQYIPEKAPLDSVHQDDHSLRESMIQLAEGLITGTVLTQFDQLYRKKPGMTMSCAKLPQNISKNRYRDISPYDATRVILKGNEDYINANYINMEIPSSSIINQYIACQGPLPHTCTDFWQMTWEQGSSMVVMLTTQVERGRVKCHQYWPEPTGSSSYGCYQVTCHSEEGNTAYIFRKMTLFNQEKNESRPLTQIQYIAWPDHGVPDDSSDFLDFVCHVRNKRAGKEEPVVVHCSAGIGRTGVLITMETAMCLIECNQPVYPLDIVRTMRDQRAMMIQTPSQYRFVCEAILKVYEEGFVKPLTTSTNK
Procedure: as §1

[8] = molecular target: T6, CD45 (Homo sapiens, UniProt P08575); assay: PhosphataseProfiler (Eurofins) selectivity panel; format: biochemical; settings: CD45, 25µM
T6 construct: purchased Eurofins PP260
T6 sequence (P08575 26-1306): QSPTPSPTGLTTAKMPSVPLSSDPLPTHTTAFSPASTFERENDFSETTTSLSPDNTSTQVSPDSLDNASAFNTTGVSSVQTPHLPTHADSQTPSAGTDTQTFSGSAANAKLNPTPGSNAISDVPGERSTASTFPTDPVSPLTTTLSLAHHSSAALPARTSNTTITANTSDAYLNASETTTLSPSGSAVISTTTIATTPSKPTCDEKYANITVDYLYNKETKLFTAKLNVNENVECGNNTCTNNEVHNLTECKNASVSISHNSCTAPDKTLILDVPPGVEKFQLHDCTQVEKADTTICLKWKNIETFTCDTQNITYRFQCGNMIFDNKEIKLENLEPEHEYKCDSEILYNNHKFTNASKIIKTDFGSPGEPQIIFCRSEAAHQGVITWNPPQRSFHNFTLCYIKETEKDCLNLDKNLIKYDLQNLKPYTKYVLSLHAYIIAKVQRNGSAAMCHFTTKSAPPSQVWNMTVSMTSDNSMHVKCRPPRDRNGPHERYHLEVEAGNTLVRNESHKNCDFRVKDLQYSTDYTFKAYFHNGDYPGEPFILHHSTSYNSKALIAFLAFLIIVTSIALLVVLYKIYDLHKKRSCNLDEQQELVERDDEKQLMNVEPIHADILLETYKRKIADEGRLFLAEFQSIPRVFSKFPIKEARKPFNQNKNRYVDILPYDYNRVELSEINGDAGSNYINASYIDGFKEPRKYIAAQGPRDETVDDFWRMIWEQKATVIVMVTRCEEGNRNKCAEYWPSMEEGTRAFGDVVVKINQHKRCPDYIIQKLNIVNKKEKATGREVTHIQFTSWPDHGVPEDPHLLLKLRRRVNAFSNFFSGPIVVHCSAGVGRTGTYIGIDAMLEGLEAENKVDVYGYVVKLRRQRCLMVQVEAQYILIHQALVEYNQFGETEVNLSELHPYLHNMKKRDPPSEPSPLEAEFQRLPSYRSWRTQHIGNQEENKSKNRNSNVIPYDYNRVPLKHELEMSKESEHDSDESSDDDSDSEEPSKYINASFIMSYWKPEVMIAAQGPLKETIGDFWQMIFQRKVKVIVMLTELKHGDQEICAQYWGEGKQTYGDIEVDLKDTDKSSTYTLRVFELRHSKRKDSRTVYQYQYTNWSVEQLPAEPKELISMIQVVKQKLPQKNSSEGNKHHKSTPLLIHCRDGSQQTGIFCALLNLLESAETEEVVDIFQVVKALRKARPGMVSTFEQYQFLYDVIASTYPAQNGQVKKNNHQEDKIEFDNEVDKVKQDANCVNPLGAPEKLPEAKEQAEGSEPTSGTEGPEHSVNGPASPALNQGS
Procedure: as §1

[9] = system: SW480 cells; assay: Annexin V staining, SW480; format: cell-based, human; settings: 100 µM Salirasib or 25 µM Candesartan, 24 and 48 hr
Procedure: (§2) HEK293T, HCT116, and SW480 cells were plated in 6 well dishes at 4 × 10^5 cell seeding density and treated with DMSO, Candesartan and Salirasib at the indicated concentrations. Cells were collected at 24 h and 48 h time points and the AnnexinV staining was performed according to the instructions from the manual (Thermo Fisher, Cat # 00-0055-56). Flow cytometry with AnnexinV-FITC conjugated antibody (Thermo Fisher, Cat # A13199) was used to determine the population of cells incorporating Annexin V and PI was used for the DNA content.

[10] = system: HCT116 cells; assay: Annexin V staining, HCT116; format: cell-based, human; settings: HCT-116; 100 µM Salirasib or 25 µM Candesartan; 24 and 48 hr
Procedure: as §2

[11] = system: HEK293T cells; assay: Annexin V staining, HEK293T; format: cell-based, human; settings: 100 µM Salirasib or 25 µM Candesartan, 24 and 48 hr
Procedure: as §2

[12] = molecular target: T7, Yoph (Yersinia enterocolitica, UniProt P15273); assay: PhosphataseProfiler (Eurofins) selectivity panel; format: biochemical; settings: 25µM
T7 construct: purchased Eurofins PP260
T7 sequence (P15273 whole entry, species assumed): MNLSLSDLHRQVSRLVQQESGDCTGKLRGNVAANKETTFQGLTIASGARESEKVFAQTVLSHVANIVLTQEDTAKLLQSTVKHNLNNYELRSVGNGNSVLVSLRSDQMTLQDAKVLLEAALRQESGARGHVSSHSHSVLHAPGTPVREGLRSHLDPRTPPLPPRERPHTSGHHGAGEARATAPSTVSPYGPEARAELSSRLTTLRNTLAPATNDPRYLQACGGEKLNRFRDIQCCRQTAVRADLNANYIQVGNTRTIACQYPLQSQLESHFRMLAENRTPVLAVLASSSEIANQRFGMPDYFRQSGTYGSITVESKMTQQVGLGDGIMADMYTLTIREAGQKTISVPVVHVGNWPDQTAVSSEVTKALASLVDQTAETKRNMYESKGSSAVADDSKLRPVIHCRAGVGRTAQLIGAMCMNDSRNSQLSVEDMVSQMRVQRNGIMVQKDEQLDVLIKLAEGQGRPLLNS
Procedure: as §1

Structure (SMILES)	phospho-ERK levels [1]	Percent Phosphatase Activity (compared to DMSO) [2]	Percent Phosphatase Activity (compared to DMSO) [3]	Percent Phosphatase Activity (compared to DMSO) [4]	Percent Phosphatase Activity (compared to DMSO) [5]	Percent Phosphatase Activity (compared to DMSO) [6]	Percent Phosphatase Activity (compared to DMSO) [7]	Percent Phosphatase Activity (compared to DMSO) [8]	apoptosis (AnnexinV plus propidium iodide) [9]	apoptosis (AnnexinV plus propidium iodide) [10]	apoptosis (AnnexinV plus propidium iodide) [11]	Percent Phosphatase Activity (compared to DMSO) [12]
CC(C)=CCC/C(C)=C/CC/C(C)=C/CSc1ccccc1C(=O)O [Salirasib]	decreased phospho-ERK levels	104%	118%	112%	102%	107%	107%	102%	–	–	–	–
CCOc1nc2cccc(C(=O)O)c2n1Cc1ccc(-c2ccccc2-c2nnn[nH]2)cc1 [Candesartan]	decreased phospho-ERK levels	105%	128%	107%	97%	110%	109%	100%	did not significantly impact	did not significantly impact	did not significantly impact	112%
